“And” between values parts separate entries of the source, which are not always exact repeats. Equal values may be shown once. Read-outs that look alike come from different tables or passages of the source.
Columns and labels:
K-Ras G13C = K-Ras G13C (Homo sapiens (Human), UniProt P01116+P62937, G13C); experiment: Ras-Raf (BRAF RBD) disruption / FRET / MOA assay, KRAS G13C; assay type: biochemical; settings: KRAS G13C; Ras-Raf disruption/FRET/MOA assay; read-out: IC50* KRAS G13C FRET data
Method: (§1) The purpose of this biochemical assay is to measure the ability of test compounds to facilitate ternary complex formation between a nucleotide-loaded Ras isoform and cyclophilin A; the resulting ternary complex disrupts binding to a BRAF^RBD construct, inhibiting Ras signaling through a RAF effector.
(§2) Compound is present in plate wells as a 10-point 3-fold dilution series starting at a final concentration of 30 μM. After incubation at 25° C. for 3 hours, a mixture of Anti-His Eu-W1024 and anti-GST allophycocyanin is then added to assay sample wells at final concentrations of 10 nM and 50 nM, respectively, and the reaction incubated for an additional 1.5 hours. […] Compounds that facilitate disruption of a Ras:RAF complex are identified as those eliciting a decrease in the TR-FRET ratio relative to DMSO control wells.
(§3) This protocol may also be executed substituting other Ras proteins or nucleotides.
(§4) The purpose of this biochemical assay was to measure the ability of test compounds to facilitate ternary complex formation between a nucleotide-loaded K-Ras isoform and Cyclophilin A; the resulting ternary complex disrupts binding to a BRAF^RBD construct, inhibiting K-Ras signaling through a RAF effector. Data is reported as IC50 values.
as §2, with “Compound was” for “Compound is”, “allophycocyanin was” for “allophycocyanin is”, “a K-Ras:RAF” for “a Ras:RAF”, “complex were” for “complex are”

NRAS G12C = NRAS G12C (Homo sapiens (Human), UniProt P01111+P62937, G12C); experiment: Ras-Raf (BRAF RBD) disruption / FRET / MOA assay, NRAS G12C; assay type: biochemical; settings: read-out: IC50* NRAS G12C FRET data
Method: as §1, §2
This protocol may also be executed substituting other Ras proteins or nucleotides. […]

KRAS G12D = KRAS G12D (Homo sapiens (Human), UniProt P01116+P62937, G12D); experiment: Ras-Raf (BRAF RBD) disruption / FRET / MOA assay, KRAS G12D; assay type: biochemical; settings: Ras-Raf disruption/FRET/MOA assay; class symbols; read-out: KRAS G12D FRET data IC50
Method in brief: (§5)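 Compound-driven ternary complex of nucleotide-loaded Ras with cyclophilin A, disrupting BRAF RBD binding. 10-point 3-fold dilution from 30 μM final, 3 h at 25° C, then anti-His Eu-W1024 (10 nM) and anti-GST allophycocyanin (50 nM) for 1.5 h. IC50 from TR-FRET ratio decrease versus DMSO.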

K-Ras G12C = K-Ras G12C (Homo sapiens (Human), UniProt P01116+P62937, G12C); experiment: Ras-Raf (BRAF RBD) disruption / FRET / MOA assay, KRAS G12C; assay type: biochemical; settings: KRAS G12C; Ras-Raf disruption/FRET/MOA assay; read-out: IC50* KRAS G12C FRET data
Method: as §1, §2, §3, §4
as §2, with “Compound was” for “Compound is”, “allophycocyanin was” for “allophycocyanin is”, “a K-Ras:RAF” for “a Ras:RAF”, “complex were” for “complex are”

KRAS G12S = KRAS G12S (Homo sapiens (Human), UniProt P01116+P62937, G12S); experiment: Ras-Raf (BRAF RBD) disruption / FRET / MOA assay, KRAS G12S; assay type: biochemical; settings: Ras-Raf disruption/FRET/MOA assay; class symbols; read-out: KRAS G12S FRET data IC50
Method in brief: as §5

[1] = system: NCI-H358 cells (K-Ras G12C); experiment: Potency assay: pERK in NCI-H358 cells; assay type: cell-based, human; settings: H358 KRAS G12C, read-out: pERK EC50
Method in brief: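 Compounds are dosed as ten 3-fold dilutions from a 10 mM DMSO stock, in duplicate, and left on cells for 4 h at 37 °C, 5% CO2. Phospho-ERK1/2 is then quantified by AlphaLISA SureFire Ultra or In-Cell Western, and IC50 is derived from a 4-parameter sigmoid against log concentration.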

NCI-H358 (K-Ras G12C) = experiment: CellTiter-Glo cell viability assay, NCI-H358; assay type: cell-based, human; settings: NCI-H358, 5-day treatment, class symbols, read-out: Additional H358 Cell Viability assay data (K-Ras G12C, IC50)
Method in brief: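 Four-parameter logistic fits were applied to luminescence data normalized against DMSO-treated wells. Readings were taken on day 5 following direct compound addition, after roughly 30 minutes at room temperature.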

KRAS G12V = KRAS G12V (Homo sapiens (Human), UniProt P01116+P62937, G12V); experiment: Ras-Raf (BRAF RBD) disruption / FRET / MOA assay, KRAS G12V; assay type: biochemical; settings: read-out: IC50* KRAS G12V FRET data
Method: as §1, §2, §3, §4
as §2, with “Compound was” for “Compound is”, “allophycocyanin was” for “allophycocyanin is”, “a K-Ras:RAF” for “a Ras:RAF”, “complex were” for “complex are”

KRAS WT = KRAS WT (Homo sapiens (Human), UniProt P01116+P62937); experiment: Ras-Raf (BRAF RBD) disruption / FRET / MOA assay, KRAS WT; assay type: biochemical; settings: read-out: IC50* KRAS WT FRET data
Method: as §1, §2, §3, §4
as §2, with “Compound was” for “Compound is”, “allophycocyanin was” for “allophycocyanin is”, “a K-Ras:RAF” for “a Ras:RAF”, “complex were” for “complex are”

KRAS G13D = KRAS G13D (Homo sapiens (Human), UniProt P01116+P62937, G13D); experiment: Ras-Raf (BRAF RBD) disruption / FRET / MOA assay, KRAS G13D; assay type: biochemical; settings: read-out: IC50* KRAS G13D FRET data
Method: as §1, §2, §3, §4
as §2, with “Compound was” for “Compound is”, “allophycocyanin was” for “allophycocyanin is”, “a K-Ras:RAF” for “a Ras:RAF”, “complex were” for “complex are”

NRAS G12C, sequence (P01111 whole entry G12C): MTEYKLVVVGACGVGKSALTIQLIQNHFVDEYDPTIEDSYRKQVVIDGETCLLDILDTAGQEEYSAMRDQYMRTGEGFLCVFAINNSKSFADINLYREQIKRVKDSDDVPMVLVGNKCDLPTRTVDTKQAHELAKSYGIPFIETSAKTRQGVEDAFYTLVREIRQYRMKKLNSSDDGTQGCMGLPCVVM
NRAS G12C, sequence (P62937 whole entry): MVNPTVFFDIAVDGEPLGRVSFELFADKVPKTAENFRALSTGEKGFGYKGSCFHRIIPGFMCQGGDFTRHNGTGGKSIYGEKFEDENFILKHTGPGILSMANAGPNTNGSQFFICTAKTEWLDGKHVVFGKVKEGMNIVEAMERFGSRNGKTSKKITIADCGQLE
KRAS WT, sequence (P01116-2 other isoform, or with tags, fused parts or gaps): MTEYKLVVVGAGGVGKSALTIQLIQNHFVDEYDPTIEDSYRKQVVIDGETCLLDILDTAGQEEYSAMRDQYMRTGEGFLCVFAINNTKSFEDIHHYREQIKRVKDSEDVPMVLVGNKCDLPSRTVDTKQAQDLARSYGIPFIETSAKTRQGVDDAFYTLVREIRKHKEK
KRAS WT, sequence (P62937 whole entry): as the sequence (P62937 whole entry) above
K-Ras G13C, sequence (P01116-2 other isoform, or with tags, fused parts or gaps G13C): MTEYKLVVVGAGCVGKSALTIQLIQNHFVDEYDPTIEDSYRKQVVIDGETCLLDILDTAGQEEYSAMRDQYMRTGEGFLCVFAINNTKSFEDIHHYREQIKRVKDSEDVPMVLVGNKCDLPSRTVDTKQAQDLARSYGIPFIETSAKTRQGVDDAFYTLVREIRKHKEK
K-Ras G13C, sequence (P62937 whole entry, canonical isoform): as the sequence (P62937 whole entry) above
KRAS G12V, sequence (P01116-2 other isoform, or with tags, fused parts or gaps G12V): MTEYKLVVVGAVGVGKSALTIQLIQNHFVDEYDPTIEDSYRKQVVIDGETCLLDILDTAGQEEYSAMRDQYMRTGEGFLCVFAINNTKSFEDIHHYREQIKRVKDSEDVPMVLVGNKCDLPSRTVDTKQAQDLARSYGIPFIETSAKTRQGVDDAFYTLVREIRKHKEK
KRAS G12V, sequence (P62937 whole entry): as the sequence (P62937 whole entry) above
KRAS G12S, sequence (P01116-2 other isoform, or with tags, fused parts or gaps G12S): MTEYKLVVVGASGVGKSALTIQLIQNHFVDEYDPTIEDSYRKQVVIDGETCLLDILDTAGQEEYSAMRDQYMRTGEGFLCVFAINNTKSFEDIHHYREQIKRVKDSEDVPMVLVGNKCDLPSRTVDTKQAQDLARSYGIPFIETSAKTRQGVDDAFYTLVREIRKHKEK
KRAS G12S, sequence (P62937 whole entry): as the sequence (P62937 whole entry) above
K-Ras G12C, sequence (P01116-2 other isoform, or with tags, fused parts or gaps G12C): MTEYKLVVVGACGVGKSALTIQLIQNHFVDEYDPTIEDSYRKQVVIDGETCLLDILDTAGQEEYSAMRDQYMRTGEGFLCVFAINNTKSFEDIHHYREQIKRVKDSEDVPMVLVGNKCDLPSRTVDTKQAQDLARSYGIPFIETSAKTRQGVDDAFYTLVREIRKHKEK
K-Ras G12C, sequence (P62937 whole entry): as the sequence (P62937 whole entry) above
KRAS G12D, sequence (P01116-2 other isoform, or with tags, fused parts or gaps G12D): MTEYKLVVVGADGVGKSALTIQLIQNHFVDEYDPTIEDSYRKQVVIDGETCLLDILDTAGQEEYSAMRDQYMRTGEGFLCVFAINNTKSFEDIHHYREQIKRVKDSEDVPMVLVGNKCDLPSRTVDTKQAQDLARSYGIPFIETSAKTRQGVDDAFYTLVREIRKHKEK
KRAS G12D, sequence (P62937 whole entry): as the sequence (P62937 whole entry) above
KRAS G13D, sequence (P01116-2 other isoform, or with tags, fused parts or gaps G13D): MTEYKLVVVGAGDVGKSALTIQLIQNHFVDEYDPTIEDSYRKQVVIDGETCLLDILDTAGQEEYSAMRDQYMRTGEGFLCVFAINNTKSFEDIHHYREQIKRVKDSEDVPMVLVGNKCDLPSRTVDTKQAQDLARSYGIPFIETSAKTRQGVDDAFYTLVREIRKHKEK
KRAS G13D, sequence (P62937 whole entry): as the sequence (P62937 whole entry) above

Structure (SMILES)	IC50 (K-Ras G13C)	IC50 (NRAS G12C)	IC50 (KRAS G12D)	IC50 (K-Ras G12C)	IC50 (KRAS G12S) [µM]	EC50 [1] [µM]	IC50 (NCI-H358 (K-Ras G12C); Homo sapiens, NCI-H358, 120 h) [µM]	IC50 (KRAS G12V)	IC50 (KRAS WT)	EC50 ([1]; Homo sapiens, NCI-H358) [µM]	IC50 (KRAS G13D) [µM]	IC50 (NCI-H358 (K-Ras G12C)) [µM]
CCn1c(-c2ccccc2CCOC)c2c3cc(ccc31)-c1cc(O)cc(c1)C[C@H](NC(=O)[C@H](C(C)C)N(C)C(=O)c1ccc(NC(=O)/C=C/CN(C)C)nc1)C(=O)N1CCC[C@H](N1)C(=O)OCC(C)(C)C2 [Example A218]	0.01 to 0.1 µM and 0.1 to 1 µM		1 to 10 µM	0.1 to 1 µM and 1 to 10 µM	> 10		> 1	1 to 10 µM and > 10 µM	> 10 µM	< 5		
C=CC(=O)N1CC[C@H](C(=O)N(C)[C@H](C(=O)N[C@H]2Cc3cc(O)cc(c3)-c3ccc4c(c3)c(c(-c3ccccc3CCOC)n4CC)CC(C)(C)COC(=O)[C@]3(C)CCCN(N3)C2=O)C(C)C)C1 [Example A219]	> 10 µM		> 10 µM	1 µM to 10 µM (2×) and > 10 µM (2×)	> 10		0.1 to 1	> 10 µM	> 10 µM	< 5		
CCn1c(-c2ccccc2CCOC)c2c3cc(ccc31)-c1cc(O)cc(c1)C[C@H](NC(=O)[C@H](C(C)C)N(C)C(=O)c1ccc(N(C)C(=O)/C=C/CN(C)C)cc1)C(=O)N1CCC[C@H](N1)C(=O)OCC(C)(C)C2 [Example A220]	0.1 to 1 µM		1 to 10 µM and > 10 µM	0.1 to 1 µM and 1 to 10 µM	> 10		> 1	> 10 µM	> 10 µM	< 5		
CCn1c(-c2ccccc2CCOC)c2c3cc(ccc31)-c1cc(O)cc(c1)C[C@H](NC(=O)[C@H](C(C)C)N(C)C(=O)c1ccc(NC(=O)/C=C/CN(C)C)cn1)C(=O)N1CCC[C@H](N1)C(=O)OCC(C)(C)C2 [Example A224]	0.01 to 0.1 µM and 0.1 to 1 µM		1 to 10 µM	0.1 to 1 µM and 1 to 10 µM	> 10		> 1	1 to 10 µM and > 10 µM	> 10 µM	< 5		
C=CC(=O)Nc1cnc(C(=O)N(C)[C@H](C(=O)N[C@H]2Cc3cc(O)cc(c3)-c3ccc4c(c3)c(c(-c3cccnc3[C@H](C)OC)n4CC)CC(C)(C)COC(=O)[C@@H]3CCCN(N3)C2=O)C(C)C)n1C [Example A334]	0.01 to 0.1 µM and < 0.01 µM	< 0.01 µM and 0.01 to 0.1 µM	0.1 to 1 µM	< 0.01 µM and 0.01 to 0.1 µM	0.01 to 0.1			0.1 to 1 µM and 0.01 to 0.1 µM	0.1 to 1 µM and 0.01 to 0.1 µM	< 5		< 0.01

The next lines start with results.

IC50 (K-Ras G13C)	IC50 (NRAS G12C)	IC50 (KRAS G12D)	IC50 (K-Ras G12C)	IC50 (KRAS G12S) [µM]	EC50 [1] [µM]	IC50 (NCI-H358 (K-Ras G12C); Homo sapiens, NCI-H358, 120 h) [µM]	IC50 (KRAS G12V)	IC50 (KRAS WT)	EC50 ([1]; Homo sapiens, NCI-H358) [µM]	IC50 (KRAS G13D) [µM]	Structure (SMILES)	IC50 (NCI-H358 (K-Ras G12C)) [µM]
0.1 to 1 µM	< 0.01 µM	1 to 10 µM	< 0.01 µM	> 10	< 5						CCn1c(-c2cccnc2COC)c2c3cc(ccc31)-c1cc(C)cc(c1)C[C@H](NC(=O)[C@H](C(C)C)N(C)C(=O)[C@H]1CCN(C(=O)C#CCN(C)C)C1)C(=O)N1CCC[C@H](N1)C(=O)OCC(C)(C)C2 [Example A157]	
0.01 to 0.1 µM		1 to 10 µM		0.1 to 1		< 0.01	0.1 to 1 µM	0.1 to 1 µM	< 5	0.1 to 1	CCn1c(-c2cccnc2[C@H](C)OC)c2c3cc(ccc31)-c1cc(O)cc(c1)C[C@H](NC(=O)[C@H](C(C)C)N(C)C(=O)[C@H]1CCN(C(=O)C#CC3(N(C)C)COC3)C1)C(=O)N1CCC[C@H](N1)C(=O)OCC(C)(C)C2 [Example A246]	
	< 0.01 µM	1 to 10 µM	< 0.01 µM	0.1 to 1	< 5						CCn1c(-c2cccnc2[C@H](C)OC)c2c3cc(ccc31)-c1cc(O)cc(c1)C[C@H](NC(=O)[C@H](C(C)C)N(C)C(=O)[C@H]1CCN(C(=O)C#CC3(N(C)C)COC3)C1)C(=O)N1CCC[C@H](N1)C(=O)OCC(C)(C)C2 [Example A337]	< 0.01

From patent US11566007B2, “Ras inhibitors” (Revolution Medicines, Inc., priority 2019, dated 2023)
